The values below come from EP4650362A1, “NEUROPROTECTIVE PSD-95 POLYPEPTIDE INHIBITOR AND USE THEREOF” (Beijing Tuo Jie Biopharmaceutical Co. Ltd., priority 2023, dated 2024).

Where two headings read alike, the source gives them in different places. No end group written: not given here.

One series deals with T1, human PSD95-PDZ2 (Homo sapiens, UniProt P78352).
T1 construct: PDZ2 (155-249, the Flag-His-Avitag-TEVsite tag is italicized); made in house; host or cells: E. coli BL21-DE3 (PET vector)
Description: competitive ELISA, affinity for human PSD95-PDZ2. The series is classed as binding. Background: An ELISA detects its analyte on a solid surface through an enzyme-linked reagent.

Series [1] in a line: plasma stability test, human plasma. The series is classed as in vitro ADME. As to conditions: Human plasma, 25 µM. As to the method:
Solution preparation: An appropriate amount of a test polypeptide compound was weighed out and dissolved in an appropriate amount of 1× PBS to form a 1 mM test solution. NA-1 and NoNO42 were used as positive drugs, propantheline bromide was used as a human plasma test control, and lovastatin was used as a rat plasma test control. Plasma stability test: 12.5 µL of the 1 mM test solution was added to a 495 µL pre-incubated plasma sample. […] For each incubation time, two parallel samples were set. Subsequently, 200 µL of stop solution was added to stop the incubation, and the mixtures were vortexed for 5 min. Then the mixtures were centrifuged at 10,000 rpm at 4 °C for 10 min to remove the protein in the sample, and 70 µL of the supernatant was transferred to a new 96-well plate (70 µL of water was added to each well beforehand) and well mixed. […] Sample pretreatment: […] LC-MS analysis: […] (2) Mass-spectrometric conditions: The mass spectrometry analysis used an electrospray ionization (ESI) source, a positive ion analysis mode, and a multi-reaction monitoring (MRM) scan mode. […] The plasma stability of the polypeptide compound

The nature of series [2]: pharmacokinetic study in rats, single intravenous bolus injection. As to conditions: rats; for Cmax: iv, read-out: Cmax. It is filed as in vivo, SD rats. As to the method:
With male SD rats as test animals, the pharmacokinetic behavior of polypeptide compounds administered via single intravenous bolus injection in rats (plasma) was studied.
Male SD rats weighing 170 to 200 grams and aged 4-6 weeks were purchased from Beijing Vital River Laboratory Animal Technology Co., Ltd. The polypeptide compounds were dissolved in 1× PBS, and the polypeptide compound solutions were then administered via intravenous bolus injection over 10 min at a dose of 3 nmol/g, with three animals per group. At each of the time points of 2 min, 8 min, 15 min, 30 min, 45 min, 60 min, and 120 min after the end of bolus injection, 0.2 mL of blood was collected and transferred to an EDTA-K2 anticoagulation centrifuge tube. The whole blood sample was centrifuged at 4 °C at 4000 g for 5 min, and a plasma sample was obtained by separation and cryopreserved at -80 °C.
The pharmacokinetic parameters of polypeptide compound 22, administered via intravenous bolus injection, in rats were determined using a similar method, with the difference being that an enzyme inhibitor was added immediately after blood collection.
The plasma concentrations of the test compounds were determined using the method in Test Example 3.4.3. Plasma concentration-time curves were plotted, and the pharmacokinetic parameters were calculated using PKSolver software. The experimental results are shown in Table 5-1, Table 5-2, and FIG. 3.

[3] abbreviates: male, SD, rat, in vivo, 3 nmol/g, intravenous bolus injection, enzyme inhibitor added immediately after blood collection, n = 3.
[4] abbreviates: intravenous bolus injection over 10 min, 3 nmol/g, n = 3.
Where [5] appears, read: intravenous bolus injection, enzyme inhibitor added immediately after blood collection, n = 3.

In the case of “YGRKKRRQRRRKLSSIESDV [NA-1, YGRKKRRQR RRKLSSIESDV, reference compound]”, the IC50 on human PSD95-PDZ2 was 0.909 µM. The “Relative remaining compound content (%)” value in series [1] (0min (standard 100%)) is 100.0%. For the same sequence, in series [1] (10min, read-out: Relative remaining compound content (%)), the fraction remaining at 10 min, 25 µM worked out at 76.4%. Moreover, in series [1] (20min, read-out: Relative remaining compound content (%)), the fraction remaining at 20 min, 25 µM came to 74.9%. In series [1] (30min, read-out: Relative remaining compound content (%)), the fraction remaining at 0.5 h, 25 µM was 70.6%. Moreover, in series [1] (60min, read-out: Relative remaining compound content (%)), the share remaining at 1 h, 25 µM was determined as 53.9%. Besides, the fraction remaining at 2 h, 25 µM in series [1] (120min, read-out: Relative remaining compound content (%)) is 25.1%. Also, in series [2] (setting [3]), the Tmax turned out to be 12 min and the Cmax is 7250 ng/mL. In addition, the Cmax in series [2] (male, SD, rat, in vivo, 3 nmol/g, intravenous bolus injection over 10 min, 3 nmol/g, n = 3) came out at 3800 ng/mL. Further, the half-life in series [2] (male, SD, rat, in vivo, intravenous bolus injection over 10 min, 3 nmol/g, n = 3, read-out: T1/2 (converted)) was 2.4 min. Besides, in series [2] (setting [4]), the “AUC(0-t)” value worked out at 309 ng·h/mL, the “AUC(inf)” value was found to be 315 ng·h/mL, the AUClast/dose is recorded as 41 and the MRTO-inf was found to be 3.6 min. In addition, in series [2] (intravenous bolus injection, 3 nmol/g (Table 5-1)), the half-lives entry is recorded as “less than 3 min”. Further, in series [2] (setting [5]), the “AUC(inf)” value turned out to be 1248 ng·h/mL, the AUClast/dose is 184.0, the MRTO-inf is 13.2 min and the T1/2 came to 2.4 min.

For orientation: IC50 means the concentration at which inhibition is half-maximal. A lower IC50 goes with greater potency. For orientation: fraction remaining means what is left of the initial amount, in per cent. For orientation: Tmax means the time at which the peak concentration occurs. Broadly, the Cmax is the highest concentration seen after dosing. For orientation: AUC(0-t) means exposure summed from dosing to a finite time, without extrapolation to infinity. High values mean high exposure, low ones low exposure.
